Here are results for 54 molecules from PubChem BioAssay AID686967 (The Scripps Research Institute Molecular Screening Center, 2013).

By IC50 is commonly meant the point on the concentration scale where inhibition reaches its midpoint.

Calls of active or inactive are those of the source. No rule for the calls is given here.

The assay addresses methionyl-tRNA synthetase (Trypanosoma brucei brucei). In words: T. brucei MetRS inhibitors, late-stage follow-up, biochemical, luminescence, dose response (AID 686967). The conditions noted are these: recombinant T. brucei MetRS, luminescence (ATP depletion).
`CC(C)(C)[C@H]1C=C(C(=O)NCc2nc3ccccc3[nH]2)O[C@@H](OCc2ccc(CO)cc2)C1`: the IC50 is 2830 nM.
Turning to `O=C(NNC(=O)c1cc(-c2ccc(Cl)c(Cl)c2)nc2ccccc12)Nc1ccccc1`, the IC50 is 1200 nM.
For `CC(=O)c1c[nH]c(C(=O)NCc2cccc(C(F)(F)F)c2)c1`, the 50% inhibitory concentration (IC50) was 1040 nM.
Then `Brc1cnc2nc(SCc3nc4ccccc4[nH]3)[nH]c2c1`, with 2410 nM.
Regarding `CC(C)(C)[C@@H]1C=C(C(=O)NCc2nc3ccccc3[nH]2)O[C@H](OCc2ccc(CO)cc2)C1`, the IC50 was 3390 nM.
`O=C(NNC(=O)c1ccc(-n2cncn2)c([N+](=O)[O-])c1)c1ccc(Cl)cc1`: the IC50 was 2850 nM.
`COc1ccccc1NS(=O)(=O)c1cccc(NC(=O)Nc2ccccc2)c1`: the half-maximal inhibitory concentration (IC50) was 600 nM.
Then `COc1ccc(CNC(=O)CSc2nnc3c(n2)[nH]c2ccc(F)cc23)cc1`, with 755 nM; and `COc1cccc(NC(=O)CSc2nnc3c(n2)[nH]c2ccc(C)cc23)c1`, with 44.1 nM.
In the case of `COc1ccc(OCC(O)CNC(=O)Nc2ccc(Cl)cc2)cc1` (centres undefined), the 50% inhibitory concentration (IC50) is 5540 nM.
As for `O=C(NCc1nc2ccccc2[nH]1)C1=C[C@H](c2csc3ccccc23)C[C@H](OCCCCO)O1`, the half-maximal inhibitory concentration (IC50) was 739 nM.
`O=C(NCc1nc2ccccc2[nH]1)C1=C[C@@H](c2csc3ccccc23)C[C@@H](OCCCCO)O1`: the IC50 was 2330 nM.
Then `O=C(Cn1cc(C(=O)C(=O)N2CCOCC2)c2ccccc21)Nc1cccc(C(F)(F)F)c1`, with 172 nM; and `O=C(NCc1nc2ccccc2[nH]1)C1=C[C@@H](C2CC2)C[C@@H](OCc2ccc(CO)cc2)O1`, with 1500 nM.
As for `O=C(CC=NOCc1ccc([N+](=O)[O-])cc1)Nc1ccc(Br)cc1`, the IC50 was 1430 nM.
Then `O=C(NCc1nc2ccccc2[nH]1)C1=C[C@H](C2CC2)C[C@H](OCc2ccc(CO)cc2)O1`, with 6500 nM; and `CC(=O)c1ccc(N2CCN(C(=O)CCCn3c(=O)[nH]c4ccc(Br)cc4c3=O)CC2)cc1`, with 577 nM.
With `O=C(NCc1nc2ccccc2[nH]1)C1=C[C@@H](c2ccccc2)C[C@@H](OCc2ccc(CO)cc2)O1`, the IC50 is 1580 nM.
Then `O=C(CCC(=O)Nc1cccc([N+](=O)[O-])c1)NN=Cc1cccs1`, with 3560 nM.
Consider `O=C(C[C@H]1C(=O)N(Cc2ccccc2)C[C@@H]1c1ccc(Br)cc1)Nc1ccc(Br)cc1`, for which the IC50 was 1950 nM.
With `COc1ccc2[nH]c3nc(SCC(=O)Nc4ccc5c(c4)OCO5)nnc3c2c1`, the IC50 was 603 nM.
In the case of `COc1ccccc1-n1c(SCC(=O)Nc2ccc(Cl)cc2)nc(O)c(Cc2ccccc2)c1=O`, the half-maximal inhibitory concentration (IC50) is 3810 nM.
Turning to `CN1CC(=O)N2C(c3cccc([N+](=O)[O-])c3)c3[nH]c4ccccc4c3C[C@H]2C1=O` (some centres undefined), the IC50 is 338 nM.
As to `O=C1CC(SCc2nc3ccccc3[nH]2)C(=O)N1c1cccc(Cl)c1` (centres undefined), the IC50 entry was “inactive”.
Then `Clc1ccc(OCCSCc2nc3ccccc3[nH]2)cc1`, with 7540 nM; and `CC(CC(=O)Nc1cccc(Br)c1)=NNC(=O)c1ccc(O)cc1O`, with 949 nM.
Then `O=C1[C@@H]2Cc3c([nH]c4ccccc34)C(c3cccc([N+](=O)[O-])c3)N2C(=O)CN1CCCO` (some centres undefined), with 474 nM; and `O=C(CN1CCSC1=NCc1ccccc1)c1ccc(Cl)c(Cl)c1`, with 2220 nM.
Then `O=C(NCc1nc2ccccc2[nH]1)C1=C[C@@H](c2ccc(Br)cc2)C[C@@H](OCCCCO)O1`, with 674 nM; and `CN(Cc1cc(Cl)cc(Cl)c1)[C@H]1C[C@H]2c3[nH]c4ccccc4c3CCN2C(=O)[C@H]1CO`, with 586 nM.
On to `CCO[C@@H]1OC(C(=O)NCc2nc3ccccc3[nH]2)=C[C@H](c2ccc(Br)cc2)[C@H]1CCCO`, for which the IC50 result was “inactive”.
With `CN(CC(=O)Nc1ccc(Cl)cc1)C(=O)c1ccc(-n2cncn2)c([N+](=O)[O-])c1`, the 50% inhibitory concentration (IC50) is 845 nM.
With `O=C(Nc1ccc(F)c(Cl)c1)C1CC(=O)n2c(nc3ccccc32)N1` (centres undefined), the IC50 is 1590 nM.
Then `Clc1ccc(-c2nnc(SCc3nc4ccccc4[nH]3)o2)c(Cl)c1`, with 604 nM.
Then `O=C(NCc1nc2ccccc2[nH]1)C1=C[C@@H](c2ccc3c(c2)OCO3)C[C@@H](OCCCCO)O1`, with 1100 nM; and `O=C(CC=NOCc1ccc([N+](=O)[O-])cc1)Nc1ccc(Cl)cc1`, with 1080 nM; and `CC(C)OCCCN1CC(=O)N2C(c3cccc([N+](=O)[O-])c3)c3[nH]c4ccccc4c3C[C@H]2C1=O` (some centres undefined), with 641 nM.
Turning to `CCO[C@H]1OC(C(=O)NCc2nc3ccccc3[nH]2)=C[C@@H](c2ccc(Br)cc2)[C@@H]1CCCO`, the concentration for half-maximal inhibition (IC50) was 6240 nM.
Then `O=C1CC(N(CCc2ccccc2)C(=S)Nc2ccccc2)C(=O)N1c1ccc(Br)cc1` (centres undefined), with 438 nM.
Then `O=C(NCCc1nc2ccccc2[nH]1)c1ccc(Cl)c([N+](=O)[O-])c1`, with 148 nM.
Then `CCCCCCCCCC1NC(C(=O)O)Cc2c1[nH]c1ccccc21` (centres undefined), with 4110 nM; and `O=C(NCc1nc2ccccc2[nH]1)C1=C[C@H](c2ccc3c(c2)OCO3)C[C@H](OCCCCO)O1`, with 3040 nM; and `Cc1ccc(NC(=O)CN(C)C(=O)CCSc2ccc(F)cc2)cc1`, with 3470 nM.
As for `Oc1c(Cl)cc(Cl)cc1CNc1nc2ccccc2[nH]1`, the half-maximal inhibitory concentration (IC50) was 429 nM.
Then `C[C@H](O)[C@@H]1C(=O)N2CCc3c([nH]c4ccccc34)[C@@H]2C[C@@H]1N(C)Cc1ccc2c(c1)OCO2`, with 297 nM; and `CCOC(=O)N1CCC(Nc2c(Nc3ccc(F)cc3)c(=O)c2=O)CC1`, with 6350 nM; and `O=C(NCc1nc2ccccc2[nH]1)C1=C[C@H](c2ccc(Br)cc2)C[C@H](OCc2ccc(CO)cc2)O1`, with 2400 nM.
With `Cc1[nH]c2ccc(Br)cc2c(=O)c1CN1CCCCCC1`, the IC50 is 4200 nM.
Turning to `O=C(Cn1cnc2ccccc21)Nc1cccc([N+](=O)[O-])c1`, the 50% inhibitory concentration (IC50) is 1300 nM.
As to `O=C(NCc1nc2ccccc2[nH]1)C1=C[C@@H](c2ccc(Br)cc2)C[C@@H](OCc2ccc(CO)cc2)O1`, the IC50 was 1060 nM.
Then `O=C(NCc1nc2ccccc2[nH]1)C1=C[C@H](c2ccc(Br)cc2)C[C@H](OCCCCO)O1`, with 1580 nM.
Regarding `O=C(CC(=O)Nc1cccc(Cl)c1)NN=Cc1ccccc1`, the IC50 is 3070 nM.
For the molecule `O=C(N/C(=C\c1cccnc1)c1nc2ccccc2[nH]1)c1cccc(Br)c1`, the IC50 was 3200 nM.
With `O=C(NCc1nc2ccccc2[nH]1)C1=C[C@H](c2ccccc2)C[C@H](OCc2ccc(CO)cc2)O1`, the IC50 is 6860 nM.
